pEC50: −log10 of the molar value. Like-named read-outs stand apart in the source and are kept apart here.
Key:
F508del in NIH 3T3 cells = molecular target: T1, F508del in NIH 3T3 cells (Homo sapiens, UniProt P13569, DEL508-508); assay: 3T3 assay: membrane potential optical assay for F508del correction; format: cell-based, mouse; conditions: for pEC50: read-out: 3T3 EC50; for Emax: NIH3T3, F508del NIH 3T3 cells, read-out: 3T3 Max Activity (%); for Emax / 3T3 Max Activity (%): efficacy compared to lumacaftor in combination with acutely added 300 nM Ivacaftor
T1 construct: expressed in transfected cells
T1 sequence (P13569 with tags, fused parts or gaps DEL508-508): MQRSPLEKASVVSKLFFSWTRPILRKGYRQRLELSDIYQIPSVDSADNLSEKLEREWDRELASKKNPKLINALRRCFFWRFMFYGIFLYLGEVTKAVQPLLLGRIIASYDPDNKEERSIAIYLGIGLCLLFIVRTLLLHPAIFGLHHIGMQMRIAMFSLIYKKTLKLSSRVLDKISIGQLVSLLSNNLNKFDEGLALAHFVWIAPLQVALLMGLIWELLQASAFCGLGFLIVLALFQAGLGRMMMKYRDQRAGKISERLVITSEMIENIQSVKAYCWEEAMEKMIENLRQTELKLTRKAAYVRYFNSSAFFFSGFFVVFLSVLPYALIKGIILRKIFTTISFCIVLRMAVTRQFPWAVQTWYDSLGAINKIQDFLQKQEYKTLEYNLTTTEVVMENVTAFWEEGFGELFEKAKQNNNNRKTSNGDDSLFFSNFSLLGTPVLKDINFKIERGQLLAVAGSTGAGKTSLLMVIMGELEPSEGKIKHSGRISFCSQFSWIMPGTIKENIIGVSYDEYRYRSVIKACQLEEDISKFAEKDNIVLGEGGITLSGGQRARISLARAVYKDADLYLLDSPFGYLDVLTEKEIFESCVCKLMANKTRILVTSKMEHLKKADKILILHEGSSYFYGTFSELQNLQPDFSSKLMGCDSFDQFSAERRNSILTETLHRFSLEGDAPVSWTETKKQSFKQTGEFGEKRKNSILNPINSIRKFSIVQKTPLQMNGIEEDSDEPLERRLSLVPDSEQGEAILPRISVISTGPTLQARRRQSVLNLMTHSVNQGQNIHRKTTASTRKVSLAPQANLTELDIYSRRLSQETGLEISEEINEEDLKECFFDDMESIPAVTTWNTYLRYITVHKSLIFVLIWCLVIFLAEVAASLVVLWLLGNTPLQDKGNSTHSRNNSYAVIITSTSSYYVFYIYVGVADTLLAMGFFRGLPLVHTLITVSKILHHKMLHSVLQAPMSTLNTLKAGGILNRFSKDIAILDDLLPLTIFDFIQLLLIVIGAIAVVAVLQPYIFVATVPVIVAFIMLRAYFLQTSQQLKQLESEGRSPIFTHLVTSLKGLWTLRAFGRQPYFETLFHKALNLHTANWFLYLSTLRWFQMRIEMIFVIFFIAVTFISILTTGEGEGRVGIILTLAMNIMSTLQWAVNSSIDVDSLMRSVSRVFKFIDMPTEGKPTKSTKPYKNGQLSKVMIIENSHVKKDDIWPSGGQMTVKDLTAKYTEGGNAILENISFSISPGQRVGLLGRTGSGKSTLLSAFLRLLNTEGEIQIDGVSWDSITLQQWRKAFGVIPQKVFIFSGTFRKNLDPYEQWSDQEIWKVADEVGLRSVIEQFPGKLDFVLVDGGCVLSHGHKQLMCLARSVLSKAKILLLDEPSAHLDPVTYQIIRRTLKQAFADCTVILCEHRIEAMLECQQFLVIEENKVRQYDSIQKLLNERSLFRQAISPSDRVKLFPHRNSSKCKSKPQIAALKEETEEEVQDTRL
In short: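 NIH3T3 mouse fibroblasts stably expressing F508del incubated with corrector compounds at a range of concentrations for 16-24 h at 37 °C, then loaded with voltage-sensing redistribution dye. Single addition of forskolin with Cl− gradient (chloride-free gluconate bath vs. NaCl bath, pH 7.4); membrane potential change read by fluorescence on FLIPR.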

[1] = molecular target: CFTR-mediated chloride transport in human intestinal epithelial enteroid cells (Homo sapiens, UniProt P13569); assay: Membrane potential dye, Enteroid Assay A; format: cell-based; conditions: for Ent. A Max Activity (%): % of chloride transport of triple combination control (3 μM N-[(6-amino-2-pyridyl)sulfonyl]-6-(3-fluoro-5-isobutoxy-phenyl)-2-[(4S)-2,2,4-trimethylpyrrolidin-1-yl]pyridine-3-carboxamide, 3 μM tezacaftor, 300 nM acute ivacaftor); for pEC50: enteroid cells, 18-24 hours incubation, acute 10 μM forskolin and 300 nM ivacaftor, read-out: Ent. A EC50
Chain of CFTR-mediated chloride transport in human intestinal epithelial enteroid cells (P13569 with tags, fused parts or gaps DEL508-508): as above
In short: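 Enteroids seeded at 5000 cells/well were exposed to test compound in IEMM for 18-24 h at 37 °C, then loaded with methyl oxonol membrane potential dye. Chloride transport was triggered in chloride-free buffer with 10 μM forskolin, 100 μM IBMX and 300 nM Compound III, read by fluorescence for 15 min and expressed as % of a triple-combination control.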

[2] = F508del NIH 3T3 cells, compound incubation 18-24 hours at 37° C., forskolin activation

Row | Structure (SMILES) | pEC50 (F508del in NIH 3T3 cells; [2]) | Emax (F508del in NIH 3T3 cells) | Ent. A Max Activity (%) [1] | pEC50 [1] | other results
1 | Cc1ccccc1-c1cc2nc(n1)NS(=O)(=O)c1cccc(c1)Nc1cccc(c1)O2 | – | – | – | – | ring closure, yield after HPLC (other bond, 13-membered ring, CuI/pyrrole-2-carboxylic acid/K3PO4, DMSO, 65.2 mM, 3 steps): 2%
2 | Cc1cccc(C)c1-c1cc2nc(n1)NS(=O)(=O)c1cccc(c1)NC(=O)CCCCO2 [Compound 72, 6-(2,6-Dimethylphenyl)-2,2-dioxo-9-oxa-2λ^6-thia-3,5,15,21-tetrazatricyclo[14.3.1.14,8]henicosa-1(20),4(21),5,7,16,18-hexaen-14-one] | > 6.00 | > 60% | – | – | ring closure, yield after HPLC (amide bond, 15-membered ring, HATU/DIEA, DMF, 5 steps): 3%
3 | Cc1ccccc1-c1cc2nc(n1)NS(=O)(=O)c1cccc(c1)NC(=O)c1cccc(c1)O2 [Compound 54, 5-(o-Tolyl)-9,9-dioxo-2-oxa-9λ^6-thia-6,8,15,23-tetraazatetracyclo[15.3.1.13,7.110,14]tricosa-1(20),3,5,7(23),10(22),11,13,17(21),18-nonaen-16-one] | > 6.00 | > 60% | – | – | ring closure, yield after HPLC (from Cc1ccccc1-c1cc(Oc2cccc(C(=O)O)c2)nc(NS(=O)(=O)c2cccc(N)c2)n1, amide bond, 14-membered ring, HATU/DIEA, DMF, 81.2 mM, 0.33 h): 45%
4 | Cc1cccc(C)c1-c1cc2nc(n1)NS(=O)(=O)c1cccc(c1)NC(=O)C1CCCC(C1)O2 (mixture of isomers) [Compound 67, 5-(2,6-Dimethylphenyl)-9,9-dioxo-2-oxa-9λ^6-thia-6,8,15,23-tetraazatetracyclo[15.3.1.13,7.110,14]tricosa-3,5,7(23),10(22),11,13-hexaen-16-one] | > 6.00 | > 60% | – | – | ring closure, yield after HPLC (amide bond, 14-membered ring, HATU/DIEA, DMF, 100.0 mM, 3 steps): 20%
5 | Cc1ccccc1-c1cc2nc(n1)NS(=O)(=O)c1cccc(c1)NC(=O)c1ccc(cc1)O2 [Compound 63, 5-(o-Tolyl)-9,9-dioxo-2-oxa-9λ^6-thia-6,8,15,23-tetraazatetracyclo[15.2.2.13,7.110,14]tricosa-1(19),3,5,7(23),10(22),11,13,17,20-nonaen-16-one] | – | – | – | – | ring closure, yield after HPLC (amide bond, 15-membered ring, HATU/DIEA, DMF, 3 steps): 1%; EC50 (F508del in NIH 3T3 cells; 3T3 EC50 (μM), F508del NIH 3T3 cells, compound incubation 18-24 hours at 37° C., forskolin activation): 1 to 3 µM
6 | Cc1cccc(C)c1-c1cc2nc(n1)NS(=O)(=O)c1cccc(n1)NC(=O)C1CC(CN(C(=O)OC(C)(C)C)C1)O2 (stereo not shown) | – | – | – | – | ring closure, yield after HPLC (from Cc1cccc(C)c1-c1cc(OC2CC(C(=O)Oc3c(F)c(F)c(F)c(F)c3F)CN(C(=O)OC(C)(C)C)C2)nc(NS(=O)(=O)c2cccc(N)n2)n1, amide bond, 14-membered ring, none (thermal, OPfp ester), NMP, 10.1 mM, 140.0 °C, 5.0 h, 5 steps): 1%
7 | O=C1Nc2cccc(c2)S(=O)(=O)Nc2nc(cc(-c3cccc4ccccc34)n2)Oc2cccc1c2 [Compound 58, 5-(1-Naphthyl)-9,9-dioxo-2-oxa-9λ^6-thia-6,8,15,23-tetraazatetracyclo[15.3.1.13,7.110,14]tricosa-1(20),3,5,7(23),10(22),11,13,17(21),18-nonaen-16-one] | > 6.00 | > 60% | ++ (++ is 30-60%) | 5.52 to 6.00 | –
8 | Cc1cccc(C)c1-c1cc2nc(n1)NS(=O)(=O)c1cccc(c1)NC(=O)[C@@H]1C[C@@H](CN(C3CCCCC3)C1)O2 [Compound 10, (3S,7R)-5-cyclohexyl-19-(2,6-dimethylphenyl)-2-oxa-15λ^6-thia-5,9,16,18,21-pentaazatetracyclo[15.3.1.13,7.110,14]tricosa-1(21),10(22),11,13,17,19-hexaene-8,15,15-trione] | > 6.00 | – | ++ (++ is 30-60%) | 5.52 to 6.00 | –
9 | Cc1cccc(C)c1-c1cc2nc(n1)NS(=O)(=O)c1cccc(c1)NC(=O)[C@@H]1C[C@@H](CN(CC3CC3)C1)O2 [Compound 30] | > 6.00 | > 60% | ++ (++ is 30-60%) | 5.52 to 6.00 | –
10 | Cc1cccc(C)c1-c1cc2nc(n1)NS(=O)(=O)c1cccc(c1)NC(=O)[C@H]1CCC[C@H](C1)O2 (single isomer, unassigned) [Compound 69, 5-(2,6-dimethylphenyl)-9,9-dioxo-2-oxa-9λ^6-thia-6,8,15,23-tetraazatetracyclo[15.3.1.13,7.110,14]tricosa-3,5,7(23),10(22),11,13-hexaen-16-one] | > 6.00 | – | ++ (++ is 30-60%) | 5.52 to 6.00 | 3T3 Max Activity (%) (F508del in NIH 3T3 cells; F508del NIH 3T3 cells): +++ (+++ is >60%)
11 | COCCN1C[C@@H]2C[C@H](C1)C(=O)Nc1cccc(c1)S(=O)(=O)Nc1nc(cc(-c3c(C)cccc3C)n1)O2 [Compound 7, (3S,7R)-19-(2,6-Dimethylphenyl)-5-(2-methoxyethyl)-2-oxa-15λ^6-thia-5,9,16,18,21-pentaazatetracyclo[15.3.1.13,7.110,14]tricosa-1(21),10(22),11,13,17,19-hexaene-8,15,15-trione] | > 6.00 | > 60% | +++ (+++ is >60%) | 5.52 to 6.00 | –
12 | Cc1cccc(C)c1-c1cc2nc(n1)NS(=O)(=O)c1cccc(c1)NC(=O)C1CNCC(C1)O2 (stereo not shown) [Compound 52] | – | – | + (+ is <30%) | 4.52 to 5.52 | 3T3 Max Activity (%) (F508del in NIH 3T3 cells; F508del NIH 3T3 cells): + (+ is <30%)
13 | Cc1cccc(C)c1-c1cc2nc(n1)NS(=O)(=O)c1cccc(c1)NC(=O)[C@@H]1C[C@@H](CN(C(=O)NC(C)(C)C)C1)O2 [Compound 44] | > 6.00 | > 60% | +++ (+++ is >60%) | 4.52 to 5.52 | –
14 | Cc1cccc(C)c1-c1cc2nc(n1)NS(=O)(=O)c1cccc(c1)NC(=O)[C@@H]1C[C@@H](CN(C(=O)OCCF)C1)O2 [Compound 33] | > 6.00 | > 60% | ++ (++ is 30-60%) | 5.52 to 6.00 | –
15 | Cc1cccc(C)c1-c1cc2nc(n1)NS(=O)(=O)c1cccc(c1)NC(=O)[C@H]1C[C@H](CN(C(=O)OC(C)(C)C)C1)O2 (single isomer, unassigned) [Compound 1] | > 6.00 | 30 to 60% | + (+ is <30%) | – | –
16 | Cc1cccc(C)c1-c1cc2nc(n1)NS(=O)(=O)c1cccc(c1)NC(=O)[C@H]1CCC[C@H](C1)O2 (single isomer, unassigned) [Compound 71, 5-(2,6-dimethylphenyl)-9,9-dioxo-2-oxa-9λ^6-thia-6,8,15,23-tetraazatetracyclo[15.3.1.13,7.110,14]tricosa-3,5,7(23),10(22),11,13-hexaen-16-one] | 5.52 to 6.00 | – | +++ (+++ is >60%) | 5.52 to 6.00 | 3T3 Max Activity (%) (F508del in NIH 3T3 cells; F508del NIH 3T3 cells): +++ (+++ is >60%)
17 | Cc1cccc(C)c1-c1cc2nc(n1)NS(=O)(=O)c1cccc(c1)NC(=O)[C@@H]1CNC[C@@H](C1)O2 [Compound 50] | – | < 30% | + (+ is <30%) | – | –
18 | Cc1cccc(C)c1-c1cc2nc(n1)NS(=O)(=O)c1cccc(c1)NC(=O)[C@@H]1C[C@@H](CN(CC34CC(C3)C4)C1)O2 [Compound 25] | > 6.00 | > 60% | ++ (++ is 30-60%) | > 6.00 | –
19 | Cc1cccc(C)c1-c1cc2nc(n1)NS(=O)(=O)c1cccc(c1)NC(=O)[C@@H]1C[C@@H](CN(C(=O)C(C)(C)C)C1)O2 [Compound 46] | > 6.00 | > 60% | +++ (+++ is >60%) | 5.52 to 6.00 | –
20 | Cc1ccccc1-c1cc2nc(n1)NS(=O)(=O)c1cccc(c1)NCc1cccc(c1)O2 [Compound 62, 5-(o-Tolyl)-2-oxa-9λ^6-thia-6,8,15,23-tetraazatetracyclo[15.3.1.13,7.110,14]tricosa-1(20),3,5,7(23),10(22),11,13,17(21),18-nonaene 9,9-dioxide] | > 6.00 | – | – | – | ring closure, yield after HPLC (amine bond, 14-membered ring, NaBH(OAc)3/TFA, AcOH, 3 steps): 1%
21 | Cc1cccc(C)c1-c1cc2nc(n1)NS(=O)(=O)c1cccc(c1)NC(=O)[C@@H]1C[C@@H](CN(CCC3(C(F)(F)F)CC3)C1)O2 [Compound 27] | > 6.00 | > 60% | +++ (+++ is >60%) | > 6.00 | –
22 | Cc1cccc(C)c1-c1cc2nc(n1)NS(=O)(=O)c1cccc(c1)NC(=O)[C@H]1C[C@@H](CN(CCC(C)(C)C)C1)O2 [Compound 12, (3S,7S)-5-(3,3-Dimethylbutyl)-19-(2,6-dimethylphenyl)-2-oxa-15λ^6-thia-5,9,16,18,21-pentaazatetracyclo[15.3.1.13,7.110,14]tricosa-1(21),10(22),11,13,17,19-hexaene-8,15,15-trione] | > 6.00 | > 60% | ++ (++ is 30-60%) | 5.52 to 6.00 | –
23 | Cc1cccc(C)c1-c1cc2nc(n1)NS(=O)(=O)c1cccc(c1)NC(=O)Cc1cccc(c1)O2 [Compound 109] | 5.52 to 6.00 | > 60% | ++ (++ is 30-60%) | 4.52 to 5.52 | –
24 | Cc1cccc(C)c1-c1cc2nc(n1)NS(=O)(=O)c1cccc(c1)NC(=O)[C@H]1CNC[C@@H](C1)O2 [Compound 47] | – | 30 to 60% | + (+ is <30%) | – | –
